{"source": "patent US20240041806A1", "about": "“Eyedrops for Inhibiting Myopia Progression in Children and Screening Method for Inhibitor of Myopia Progression in Children” (Tsubota Laboratory, Inc., priority 2020, published 2024)", "key": {"[1]": {"test_system": "myopia-induced juvenile mouse", "assay": "Lens-induced myopia (-30 D lens) in juvenile mouse: axial length (SD-OCT) and refraction", "assay_type": "in vivo, mouse (C57BL6J)", "conditions": "for axial elongation of myopia-induced eye / myopic refraction of myopia-induced eye / axial elongation of control eye in which myopia had not been induced: eyedrop once a day for 10 days, 60 μM STF, 100 μM other inhibitors; for axial elongation of myopia-induced eye / myopic refraction of myopia-induced eye: -30 D lens eye; for axial elongation of control eye in which myopia had not been induced: compared with DMSO eyedrop"}, "[2]": {"test_system": "endoplasmic reticulum stress response genes (PERK pathway and ATF6 pathway) in the sclera", "conditions": "FIG. 8", "description": "A solution of sodium phenylbutyrate in PBS (4-PBA; 200 mg/kg) or tauroursodeoxycholic acid (TUDCA; 100 mg/kg) was intraperitoneally injected (i.p.) every day during the myopia induction period. Quantitative real-time PCR was performed using StepOnePlus Realtime PCR system with PowerUp SYBR Green Master Mix (Applied Biosystems, CA, USA). Expression level was standardized using β-actin. FIG. 8 illustrates change in gene expression obtained after intraperitoneal injection of 4-PBA every day through the myopia induction period. […] Besides, FIG. 10 illustrates axial elongation (a) and refraction change (b) obtained by eyedrop administration of 0.2% or 2% 4-PBA to a mouse during myopia induction. FIG. 11 illustrates axial elongation (b) and refraction change (a) obtained by intraperitoneal injection of TUDCA every day over the myopia induction period."}, "[3]": {"test_system": "lens of myopia-induced juvenile mouse", "conditions": "-30 D lens wearing group", "description": "It was examined whether or not a difference in the dosage form of 4-PBA affects the change in the lens. In accordance with the description given above in “Experimental Method”, 4-PBA was eye-dropped or intraperitoneally administered to a myopia-induced juvenile mouse, and the thickness of the lens was measured with SD-OCT in the same manner as in the measurement of the axial length."}, "[4]": {"conditions": "eyedrop administration of 2% 4-PBA as printed, 1st and 3rd weeks, FIG. 9"}}, "note": "“Also recorded” adds a separate entry of the source. Where two headings read alike, the source gives them in different places."}
{"molecule": "Cc1cc(=O)oc2c(C=O)c(O)ccc12", "note": "[4μ8C]", "values": [{"measurement": "axial elongation of myopia-induced eye", "setting": "[1]", "value": "neither axial elongation nor myopic refraction was inhibited"}, {"measurement": "myopic refraction of myopia-induced eye", "setting": "[1]", "value": "neither axial elongation nor myopic refraction was inhibited"}]}
{"molecule": "O=C(Nc1cnn(Cc2ccc(C(F)(F)F)cc2C(F)(F)F)c1)c1cc(-c2ccco2)on1", "note": "[Ceapin-A7]", "values": [{"measurement": "axial elongation of myopia-induced eye", "setting": "[1]", "value": "neither axial elongation nor myopic refraction was inhibited"}, {"measurement": "myopic refraction of myopia-induced eye", "setting": "[1]", "value": "neither axial elongation nor myopic refraction was inhibited"}, {"measurement": "axial elongation of control eye in which myopia had not been induced", "setting": "[1]", "value": "the eye axis of the control eye also elongated"}]}
{"molecule": "Cn1cc(-c2ccc3c(c2)CCN3C(=O)Cc2cccc(C(F)(F)F)c2)c2c(N)ncnc21", "note": "[GSK2606414]", "values": [{"measurement": "axial elongation of myopia-induced eye", "setting": "[1]", "value": "neither axial elongation nor myopic refraction was inhibited"}, {"measurement": "myopic refraction of myopia-induced eye", "setting": "[1]", "value": "neither axial elongation nor myopic refraction was inhibited"}, {"measurement": "axial elongation of control eye in which myopia had not been induced", "setting": "[1]", "value": "the eye axis of the control eye also elongated"}]}
{"molecule": "C[C@H](CCC(=O)NCCS(=O)(=O)O)[C@H]1CC[C@H]2[C@@H]3[C@@H](O)C[C@@H]4C[C@H](O)CC[C@]4(C)[C@H]3CC[C@]12C", "note": "[TUDCA, tauroursodeoxycholic acid]", "values": [{"measurement": "physiological axial elongation", "setting": "[1]; intraperitoneal TUDCA 100 mg/kg every day during myopia induction, FIG. 11", "value": "did not inhibit physiological axial elongation"}, {"measurement": "myopic refraction", "setting": "[1]; intraperitoneal TUDCA 100 mg/kg every day during myopia induction, FIG. 11(a)", "value": "myopic refraction is inhibited"}, {"measurement": "axial elongation (pathologic axial elongation)", "setting": "[1]; intraperitoneal TUDCA 100 mg/kg every day during myopia induction, FIG. 11(b)", "value": "inhibited pathologic axial elongation; also recorded: axial elongation is inhibited"}]}
{"molecule": "Sodium phenylbutyrate [4-PBA]", "values": [{"measurement": "axial elongation, dose dependence", "setting": "[1]; eyedrop administration of 0.2% or 2% 4-PBA during myopia induction, FIG. 10(a)", "value": "dose-dependent effectiveness was found; also recorded: inhibits axial elongation dose-dependently"}, {"measurement": "myopic refraction, dose dependence", "setting": "[1]; eyedrop administration of 0.2% or 2% 4-PBA during myopia induction, FIG. 10(b)", "value": "dose-dependent effectiveness was found; also recorded: inhibits myopic refraction dose-dependently"}, {"measurement": "axial elongation", "setting": "[1]; [4]", "value": "significantly inhibited to the same extent"}, {"measurement": "myopic refraction", "setting": "[1]; [4]", "value": "significantly inhibited to the same extent"}, {"measurement": "axial elongation", "setting": "[1]; intraperitoneal 4-PBA 200 mg/kg/day, 1st week and 3rd week of myopia induction (LIM), FIG. 9(a)", "value": "the axial elongation is inhibited"}, {"measurement": "myopic refraction", "setting": "[1]; intraperitoneal 4-PBA 200 mg/kg/day, 1st week and 3rd week of myopia induction (LIM), FIG. 9(b)", "value": "the myopic refraction is inhibited"}, {"measurement": "expression of endoplasmic reticulum stress response genes in sclera of myopia induced eyes", "setting": "[2]; 4-PBA 200 mg/kg/day intraperitoneal vs PBS", "value": "the increase is inhibited"}, {"measurement": "expression of genes disposed downstream of the PERK pathway and the ATF6 pathway", "setting": "[2]; eyedrop administration of 2% 4-PBA as printed", "value": "significantly inhibited"}, {"measurement": "lens thickening caused by myopia induction (LIM)", "setting": "[3]; eyedrop administration of 4-PBA, FIG. 14(B)", "value": "lens thickening was not caused"}, {"measurement": "lens thickening caused by myopia induction (LIM)", "setting": "[3]; intraperitoneal administration of 4-PBA, FIG. 14(A)", "value": "did not affect lens thickening"}]}
